Measurements reported in patent US20100260673A1, “PHAGE DISPLAY PEPTIDE PROBES FOR IMAGING EARLY RESPONSES TO ANTIANGIOGENIC TREATMENT” (priority 2009, published 2010).
Read-outs that look alike come from different tables or passages of the source. Where a SMILES comes first, the peptide text is derived from it. Where no end group is shown, it is not given here. The star is where a group is joined. Propanoyl(2-F) = CC(F)C(=O)*

How the values were obtained:
LS174T tumor [1] = details: mouse, in vivo
Method: The 4T1 cells were harvested from the tumor and suspended in sterile PBS at a concentration of 2×10^7 viable cells/mL.
Tumor Growth Study: When palpable tumors (150-200 mm^3) were present in all animals, mice were randomly divided into two groups (n=10/group). Cancer therapy response was evaluated in LS174T human colorectal cancer, 4T1 murine breast cancer and 22B human head-neck cancer models. […] The mouse body weight and tumor volume were measured every 3 days for up to 20 days before euthanasia.
Small Animal PET Imaging: A detailed procedure for positron emission tomography (PET) imaging has been reported earlier (Li et al., (2008) J. Nucl. Med. 49: 453-461). Briefly, PET scans were performed using a microPET R4 rodent model scanner (Siemens Medical Solutions). […] The images were reconstructed by a two-dimensional ordered subsets expectation maximum (OSEM) algorithm with no attenuation or scatter correction. For each microPET scan, regions of interest (ROIs) were drawn over the tumor by using vendor software ASI Pro 5.2.4.0 on decay corrected whole-body coronal images. Assuming a tissue density of 1 g/ml, the ROIs were converted to MBq/g/min using a conversion factor, and then divided by the administered activity to obtain an imaging ROI-derived percent injected dose per gram (% ID/g).

[2] = for metabolic stability in vivo: urine after 1 hr
Method: Metabolic Stability of AVP Peptide: Nude mice bearing LS174T tumor xenografts were intravenously injected with 3.7 MBq of ^18F-FP-AVP. Urine samples were collected 1 h after tracer injection and analyzed by HPLC.
Radiochemistry: Semi-preparative reversed-phase high performance liquid chromatography (RPHPLC) using a Vydac protein and peptide column (218TP510; 5 μm, 250×10 mm) was performed on a Dionex 680 chromatography system with a UVD 170U absorbance detector and model 105S single-channel radiation detector (Carroll & Ramsey Associates). The recorded data were processed using Chromeleon version 6.50 software. With a flow rate of 5 ml/min, the mobile phase was changed from 95% solvent A [0.1% trifluoroacetic acid (TFA) in water] and 5% B [0.1% TFA in acetonitrile] (0-2 min) to 35% solvent A and 65% solvent B at 32 min. […] C18 Sep-Pak cartridges (Waters) were pretreated with ethanol and water before use.

[3] = test system: LS174T human colorectal cancer; experiment: Tumor growth study; format: in vivo, mice
Method: Animal Models: Female athymic nude mice (nu/nu) were obtained from Harlan (Indianapolis, Ind.) at 6-8 weeks of age and were kept under sterile conditions. The LS174T or 22B cells were harvested and suspended in sterile PBS at a concentration of 5×10^7 viable cells/ml. Viable tumor cells (5×10^6) in sterile PBS (100 μL) were injected subcutaneously into the right shoulder. […] Tumor growth was followed by caliper measurements of perpendicular measures of the tumor. The tumor volume was estimated by the formula: tumor volume=a×(b2)/2, where a and b were the tumor length and width respectively in mm.

[4] = test system: 4T1 murine breast cancer cells; details: 4T1, 48 h incubation, various concentrations
Method: (§1) Toxicity of AVP on Cell Viability by MTT Assay: MTT (3-(4,5-dimethylthiazolyl-2)-2,5-diphenyltetrazolium bromide; ATCC) assays were used to measure cell viability. Three thousand tumor cells or HUVECs were seeded per well in a 96-well plate and allowed to incubate for 24 h. After incubation with various concentrations of peptide AVP for 48 h, 10 μl of MTT reagent was added to each well. Four hours later, when the purple precipitate became visible, the supernatant was discarded, and 100 μl of DMSO was added to each well and the plate was shaken in the dark for 10 min at room temperature. The absorbance at 570 nm was then measured using a microplate reader (Tecan).

[5] = test system: LS174T human colorectal cancer cells; details: 48 h incubation, various concentrations
Method: as §1

[6] = test system: human umbilical vein endothelial cells (HUVEC); details: 48 h incubation, various concentrations
Method: as §1

LS174T tumor [7] = details: Bevacizumab-treated mice
4T1 tumor = details: Bevacizumab-treated mice
22B tumor = details: Bevacizumab-treated mice, 4T1 and 22B in the same animal
[8] = test system: tumor that responds to the anti-angiogenic drug ZD4190 therapy; details: ZD4190-treated
Source text: Two-dimensional NIR fluorescence images were acquired at various time points after injection using a Maestro in vivo imaging system (CRI, Woburn, Mass.; IRdye800 excitation=735 nm, emission=780 nm long pass).

CC(C)C[C@H](NC(=O)C(C)F)C(=O)N[C@@H](CC(C)C)C(=O)N[C@@H](C)C(=O)N[C@@H](CC(=O)O)C(=O)N[C@H](C(=O)N[C@H](C(=O)N[C@@H](Cc1c[nH]cn1)C(=O)N[C@@H](Cc1c[nH]cn1)C(=O)N[C@@H](CCCNC(=N)N)C(=O)N1CCC[C@H]1C(=O)N[C@@H](Cc1c[nH]c2ccccc12)C(=O)N[C@H](C(=O)O)[C@@H](C)O)[C@@H](C)O)[C@@H](C)O (some centres unmarked) [18F-FP-AVP] ({Propanoyl(2-F)}-LLADTTHHRPWT-OH)
microPET tumor uptake, Avastin treated versus control PBS treated tumors (LS174T tumor [1]): significantly higher uptake | metabolic stability in vivo [2]: good metabolic stability | metabolic stability in vivo ([2]; listed as 18F-labeled Bevacizumab (AVASTIN™)-responsive peptide): minimal degradation or metabolism | intact tracer in urine ([2]; urine sample 1 h after i.v. injection, HPLC): about 90%

Bevacizumab (AVASTIN™): recombinant humanized monoclonal IgG1 antibody that binds human VEGF
additional time after imaging until statistically significant change in tumor volume versus saline control ([3]; LS174T and 22B tumor models, imaging on fifth day of treatment): 5 to 6 days | difference in tumor volume between treatment and control groups ([3]; fifth day following the start of treatment, 1 day after three doses): no difference

LLADTTHHRPWT [AVP]
effect on cells (MTT) [4]: little effect | effect on cells (MTT) [5]: little effect | effect on cells (MTT) [6]: little effect | concentration in LS174T tumor (LS174T tumor [7]): is concentrated | concentration in / binding to 4T1 tumor (4T1 tumor; listed as AVP peptide): no binding | concentration in / binding to 4T1 tumor (4T1 tumor; listed as Bevacizumab (AVASTIN™)-responsive peptide): not concentrated | concentration in 22B tumor (22B tumor): is concentrated | concentration in tumor responding to ZD4190 therapy [8]: concentrated
